Measurements from patent publication US7736638B2, “Interleukin-15 antagonist peptide” (Centro de Ingenieria Genetica y Biotecnologia, priority 2004, dated 2010).
Entries after “also recorded” stand apart in the source; their conditions may differ. Ends that are not written are not given here.

Tests used:
IL-15Rα-Fc = IL-15Rα-Fc (Homo sapiens, UniProt Q13261); assay: IL-15 peptide spot mapping on cellulose filter, binding of IL-15Rα-Fc; details: 10-mer peptides on cellulose membrane; IL-15 α-Receptor at 5 μg/mL; blue/violet color = positive; listed as 8
Procedure: To identify IL-15 regions involved in IL-15Rα binding, the peptide spot synthesis approach was used as previously described Frank et. al. The derivation of Whatman 540 paper was carried out estherifying the first anchor component, Fmoc-β-Ala-OH, using N,N′-Diisopropylcarbodiimide (DIC) and N-methylimidazole (NMI) in dry N,N-dimethylformamide (DMF). The spot array on the cellulose membrane was defined anchoring the Fmoc-β-Ala-OH on the previously marked positions, according to the required number of 10-mer peptides (22 peptides, overlapping in 5 residues, 114 amino acids of IL-15 sequence). Besides, a non-related 10 amino acids peptide was synthesized on spot 23 and also on spot 24 only Fmoc-β-Ala-OH was anchoring, both as controls. For the assembly of all these molecules, the standard Fmoc-/tBu chemistry was used. After the final cycle of synthesis, the N-terminus and side chains of all peptides were de-protected.
Cellulose sheet was soaked in ethanol to prevent possible hydrophobic interactions between the peptides on it. Ethanol was exchanged against Tris-buffer saline (TBS) (150 mM NaCl, 10 mM Tris, pH 7.6) by sequential washing. Nonspecific binding was blocked by incubating membrane overnight in 10 mL of TBS blocking buffer (5% Powdered milk in TBS). […]

[1] = biological target: T1, IL-15Rα-Fc fusion protein (R&D 147-IR) (Homo sapiens, UniProt Q13261); assay: Colorimetric assay in Tentagel S beads, peptide binding to IL-15Rα; details: resin-bound peptide, IL-15Rα-Fc at 5 μg/mL
T1 construct: purchased R&D 147-IR
Procedure: The resin NH2-Tentagel-S (0.24 mmol/g) was washed several times with di-chlorometane (DCM) and methanol. Then, it was incubated in a trifluoroacetic acid (TFA) solution 30% for 10 minutes; washed several times with DCM and incubated in di-isopropilethilamine (DIEA) 5% in DCM for 1 minute. This procedure activated the NH2 groups for synthesis. Later, it was washed with DCM and incubated in di-methylformamide (DMF) for 5 minutes to synthesize the peptide. The conventional Fmoc/tBu strategy of synthesis was used. Coupling reactions were followed by ninhidrine test. Once peptide Sec. No.1 sequence was completed, amino acids side chains were de-protected, leaving it anchored by its C-terminal to the resin.
Resin beads with anchored peptide were several times washed with saline solution (PBS). Non specific interactions were blocked with BSA (1%) in PBS for 1 hour at RT. Then, they were incubated with IL-15Rα-Fc fusion protein (R&D 147-IR) at 5 μg/mL in BSA (1%/PBS) for 16 hours at 4° C. Later, beads were washed in PBS three fold for 5 minutes with shaking and then incubated with anti-Fc IgG human-phosphatase conjugate diluted 1:25000 in BSA (1%/PBS) for three hours at RT. They were extensively washed with a saline solution (TBS/Tween-20, 1%) and incubated with BCIP (0.45 mg/mL) in substrate solution (100 mM Tris, pH 8.9; 100 mM NaCl; 2 mM MgCl2) for approximately 30 minutes. […]

[2] = system: IL-15-induced proliferation of CTLL-2 cells; assay: CTLL-2 proliferation assay with human IL-15 (MTT staining); format: cell-based; details: fixed peptide concentration 260 μM
Procedure: The cytokine-dependent cell line CTLL-2 proliferates in presence of IL-15. IL-15 bound molecules impairing receptor depending signal transduction would inhibit this cell line proliferation. To evaluate the neutralizing capacity the peptide of the present invention, serial dilutions of them were done in 96 well plates (Costar, USA) in 25 μL volume of RPMI medium (Gibco) supplemented with 10% fetal bovine serum (Gibco). Previously washed CTLL-2 cells were added to 5×10^3 cells/well and it was incubated for 30 min. Then, 300 pg of IL-15 were added to each well. Plate was incubated for 72 h at 5% CO2 and 37° C. […] We also evaluated the antagonist effect of 260 μM of this peptide at different IL-15 concentrations (FIG. 3a).

[3] = system: TNFα-induced apoptosis in L929 cells; assay: Apoptosis induction assay in L929 cells (DNA fragmentation assay); format: cell-based; details: TNFα 100 ng/mL, peptide 260 μM, 24 h
Procedure: The DNA Fragmentation Assay allows to determine the amount of DNA that is degraded upon treatment of cells with TNF-alpha. The cells' DNA is radioactively labeled by growing the cells in presence of 3H-Thymidine so that radioactive 3H-Thymidine is incorporated into the DNA. After 24 h the cells were treated with Tripsin/EDTA, washed and seeded at 5000 cells per well in a 96 well plate. Then, the labeled cells were incubated with TNFα (100 ng/mL), IL-15 (100 ng/mL), peptides (260 μM) or combinations of TNFα with different peptides.
During this incubation the added agent (e.g. TNFα induces cells to die by apoptosis and consequently the fragmentation of DNA while the DNA of untreated cells remains intact). After 24 h the cells were harvested: during harvesting, the cells were washed out of the wells of the 96 well plate with bidestilated water: the cells and organelles burst and the cell's DNA is set free. The cell fragments and DNA are passed through a filter membrane (glassfiber). Only particles of smaller than 1,5 μm can pass the filter. […] The filter membrane was dried and the amount of radioactivity (what corresponds to the amount of intact DNA) counted in a scintillation counter. The percentage of DNA fragmentation was calculated by comparing the counted radioactivity (counts per minute=cpm) of cells that were not treated with the cpm in cells that were treated with agent.

IL-15Rα-Fc, sequence (Q13261 with tags, fused parts or gaps limits assumed): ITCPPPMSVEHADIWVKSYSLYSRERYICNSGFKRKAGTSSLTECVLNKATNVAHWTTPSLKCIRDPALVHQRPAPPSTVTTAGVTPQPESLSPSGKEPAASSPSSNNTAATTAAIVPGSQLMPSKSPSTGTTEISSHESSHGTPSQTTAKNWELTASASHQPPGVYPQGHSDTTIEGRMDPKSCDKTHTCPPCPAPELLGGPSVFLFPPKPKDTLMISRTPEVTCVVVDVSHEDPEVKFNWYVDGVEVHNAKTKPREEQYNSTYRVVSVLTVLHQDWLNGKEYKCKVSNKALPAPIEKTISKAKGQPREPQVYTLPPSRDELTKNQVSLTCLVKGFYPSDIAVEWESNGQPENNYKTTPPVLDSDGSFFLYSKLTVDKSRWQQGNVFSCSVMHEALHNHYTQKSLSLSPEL
T1 sequence (Q13261 with tags, fused parts or gaps limits assumed): as above

recognition of the peptide spot by IL-15Rα-Fc (IL-15Rα-Fc): recognizes; also recorded: recognition | color development in beads incubated with IL-15Rα-Fc [1]: intense blue color | color development in beads incubated with IL-15Rα-Fc in presence of an excess of human IL-15 ([1]; excess of IL-15 (competition)): did not observed color
Substance: KVTAMKCFLL-NH2 [SEQ ID NO: 1]
antagonist effect of the peptide at different IL-15 concentrations [2]: dependent on IL-15 doses | protection from TNFα-induced apoptosis (DNA fragmentation) [3]: protected form TNF induced apoptosis
